This test deals with Pneumocystis murina. The test is described as follows: Pneumocystis murina prophylaxis study in dexamethasone-immunosuppressed mice (lung nuclei and asci counts). Type of test: in vivo, C3H/HeN mice. The note with it: positive control group, 50/250 mg/kg/3x/wk, 6 weeks.

Procedure: Briefly, the vehicle was prepared by first adding 1% Tween 20 to sterile phosphate-buffered saline (PBS) and then adding DMSO for a 10% DMSO in 1% Tween 20 in sterile PBS solution. […] For the 20 mg/kg/d dose, the drug was dissolved in vehicle to a concentration of 2.4 mg/ml. The mice then received 0.48 mg in a 200 μl dose. The drug was stored at −20° C. until initiation of dosage. The drug was prepared fresh for every two days of dosing.
C3H/HeN mice (Charles River) were infected with P. murina by intranasal inoculation of P. murina organisms at 2×106/50 μl from our liquid nitrogen repository. Prior to inoculation, the P. murina organisms were pre-incubated overnight in RPMI 1640 medium supplemented with calf serum and antibiotics to eliminate any bacterial contamination. […] Slides were made from the lung homogenates at different dilutions and stained with Diff-Quik to quantify the trophic forms and cresyl echt violet to quantify the asci.
Efficacy is based on the reduction of organism burden between the treatment groups and the negative control group as determined by microscopic evaluation. The nuclei and asci counts for each lung are log transformed and statistical analysis is determined by the analysis of variance (ANOVA); individual groups are compared by the Student-Newman-Keuls t test for multiple comparisons using GraphPad Prism. […]

In the case of trimethoprim/sulfamethoxazole [TMP/SMX], the “asci observed by microscopic evaluation” value was “no asci observed” and the “nuclei seen by microscopic evaluation” value is “no nuclei seen”.

Values taken from patent US10369188B2, “Methods for preventing and treating pneumocystis infections” (Cidara Therapeutics, Inc., priority 2016, dated 2019).
